Experiments:
[1] = target: nuclear factor-kappa B (NF-kB)-inducing kinase (NIK) (Homo sapiens (Human), UniProt Q99558); assay: NIK Enzyme Inhibition Assay (Transcreener ADP fluorescence polarization); type: biochemical; conditions: purified NIK 0.2-1 nM, 10 uM ATP, Morrison's quadratic equation; read-out: NIK ADP-FP (Ki uM)
How it was run: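 Baculovirus/insect-cell-expressed NIK (0.2-1 nM) incubated with compounds 1-3.5 h at 10 uM ATP. Buffer: 50 mM HEPES pH 7.2, 10 mM MgCl2, 2 mM DTT, 1% DMSO. ADP detected by Transcreener fluorescence polarization (ADP antibody, AlexaFluor 633 tracer) after EDTA quench.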

[2] = system: REL-A (p65) nuclear translocation in HeLa cells; assay: REL-A nuclear translocation assay (classical NF-kB signaling), high content imaging; type: cell-based; conditions: Homo sapiens, HeLa, compounds 4.5 hours, then 10 ng/mL TNF-α for 30 minutes, read-out: REL-A HeLa Transloc Assay (IC50)
How it was run: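 HeLa cells in 10% FBS medium preincubated with compounds (0.2% DMSO final) for 4.5 hours, then stimulated with 10 ng/mL TNF-α for 30 minutes. Fixed cells stained with 400 ng/mL anti-REL-A antibody, Alexa488 secondary and DRAQ5; translocation quantified by imaging as nuclear to cytoplasmic signal ratio.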

[3] = system: p52 (NF-kB2) nuclear translocation in HeLa cells; assay: p52 nuclear translocation assay (non-classical NF-kB signaling), high content imaging; type: cell-based; conditions: Homo sapiens, HeLa, 5 h, 100 ng/mL anti-lymphotoxin beta receptor antibody for 5 hours, read-out: p52 HeLa Transloc Assay (IC50)
Experimental: (2) A second set of cell assay are used to define the selectivity of NIK inhibitors toward inhibition of classical vs. non-classical NF-kB signaling and rely on quantification of the nuclear translocation of p52 (NF-kB2) and REL-A (p65) using high content cellular imaging. For the p52 (non-classical NF-kB signaling) nuclear translocation assay, HeLa cells are treated with different concentrations of compounds (0.2% DMSO final) in medium containing 10% fetal bovine serum and then stimulated with 100 ng/mL, of an anti-lymphotoxin beta receptor antibody (R&D Systems) for 5 hours. In the REL-A nuclear translocation assay, HeLa cells are incubated with compounds (0.2% DMSO final) for 4.5 hours in medium containing 10% fetal bovine serum before stimulating them with 10 ng/mL tumor necrosis factor (TNF)-α (R&D Systems) for 30 minutes. Cells are fixed with 4% paraformaldehyde, permeabilized by adding 0.1% Triton X-100 in phosphate buffered saline, and then are incubated with either 2 ug/mL anti-p52 antibody (Millipore) or 400 ng/mL anti-REL-A (p65) antibody (Santa Cruz Biotechnology). Finally, the cells are incubated with an Alexa488-labeled secondary antibody (Invitrogen) and DRAQ5 DNA stain (Biostatus). Imaging is carried out using an Opera reader (Perkin Elmer) and data are analyzed with the aid of Acapella software (Perkin Elmer). The p52 or REL-A translocation into the nucleus is quantified by the ratio of the nuclear to cytoplasmic signal intensity. […] The compounds in listed in Table 1 have the corresponding inhibitory value (IC50 in micromolar) for NIK p52 Translocation Assay as set forth in Table 2.

Chain of nuclear factor-kappa B (NF-kB)-inducing kinase (NIK) (Q99558 whole entry): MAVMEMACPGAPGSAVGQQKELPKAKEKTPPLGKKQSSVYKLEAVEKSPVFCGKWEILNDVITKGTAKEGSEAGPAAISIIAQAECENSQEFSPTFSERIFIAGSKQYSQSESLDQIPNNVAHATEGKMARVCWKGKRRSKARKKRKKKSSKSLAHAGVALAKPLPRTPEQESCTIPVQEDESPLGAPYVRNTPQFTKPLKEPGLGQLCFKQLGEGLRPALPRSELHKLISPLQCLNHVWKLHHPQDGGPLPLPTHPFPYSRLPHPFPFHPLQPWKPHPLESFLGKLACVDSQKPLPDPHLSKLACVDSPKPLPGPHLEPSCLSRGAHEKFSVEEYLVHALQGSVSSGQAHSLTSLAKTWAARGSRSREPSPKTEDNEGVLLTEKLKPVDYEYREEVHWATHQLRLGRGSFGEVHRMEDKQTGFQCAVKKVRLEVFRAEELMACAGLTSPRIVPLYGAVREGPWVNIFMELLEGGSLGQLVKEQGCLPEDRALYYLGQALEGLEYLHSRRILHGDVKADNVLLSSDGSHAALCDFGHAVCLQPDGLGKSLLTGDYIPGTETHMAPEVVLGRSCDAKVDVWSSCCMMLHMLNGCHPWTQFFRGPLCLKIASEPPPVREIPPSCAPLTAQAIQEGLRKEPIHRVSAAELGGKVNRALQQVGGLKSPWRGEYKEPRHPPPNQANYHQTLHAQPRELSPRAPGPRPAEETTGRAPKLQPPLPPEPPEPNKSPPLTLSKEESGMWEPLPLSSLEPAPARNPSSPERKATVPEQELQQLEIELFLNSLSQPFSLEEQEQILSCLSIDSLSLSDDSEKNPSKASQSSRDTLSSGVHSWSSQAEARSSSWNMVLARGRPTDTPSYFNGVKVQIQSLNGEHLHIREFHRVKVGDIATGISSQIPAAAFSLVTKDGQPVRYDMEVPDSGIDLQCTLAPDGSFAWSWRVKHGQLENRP

| SMILES | Ki [1] [µM] | IC50 [2] [nM] | IC50 [3] [nM] |
| --- | --- | --- | --- |
| CNC(=O)c1c(C(N)=O)nc2n1CCOc1ccc(C#CC(C)(O)c3ccccn3)cc1-2 (stereo not drawn) | 0.0043 | > 20000 | 1400 |
| CC(C)(O)C#Cc1cc2c(cc1F)C1CC(C1)n1c-2nc(C(N)=O)c1C(F)(F)F | 0.0095 | > 20000 | 2600 |
| CN1CCC(O)(C#Cc2cc3c(cc2F)OCCc2sc(C(N)=O)nc2-3)C1=O (stereo not drawn) | 0.00053 | > 20000 | 450 |
| Cc1cc([C@](C)(O)C#Cc2ccc3c(c2)-c2nc(C(N)=O)c(-c4cnn(CC(C)(C)O)c4)n2C2CC3C2)no1 | 0.00059 | > 20000 | 934 |
| C[C@@](O)(C#Cc1cc2c(cc1F)C1CC(C1)c1[nH]c(C(N)=O)nc1-2)c1ncccn1 | 0.0026 | > 20000 | 1700 |
| CNC(=O)c1c(C(N)=O)nc2n1C1CC(C1)c1cc(F)c(C#CC3(O)CCCC3)cc1-2 | 0.00012 | > 20000 | 375 |
| Cn1c(C(N)=O)nc2c1C1CC(C1)c1cc(F)c(C#CC(C)(C)O)cc1-2 | 0.0078 | > 20000 | 286 |
| CNC(=O)c1c(C(N)=O)nc2n1C1CC(C1)c1ccc(C#C[C@@](C)(O)c3ccccn3)cc1-2 | 0.0021 | > 20000 | 830 |
| CNC(=O)c1c(C(N)=O)nc2n1CCOc1ccc(C#CC3(O)CCC3)cc1-2 | 0.0022 | > 20000 | 727 |
| Cc1cc([C@](C)(O)C#Cc2ccc3c(c2)-c2nc(C(N)=O)c(Cc4ccnn4C)n2C2CC3C2)no1 | 0.0002 | > 20000 | 1700 |
| Cc1nc2ccccc2n1Cc1c(C(N)=O)nc2n1C1CC(C1)c1ccc(C#C[C@]3(O)CCN(C)C3=O)cc1-2 | 0.00087 | > 20000 | 2900 |
| CC(=O)N(Cc1c(C(N)=O)nc2n1C1CC(C1)c1cc(F)c(C#CC(C)(C)O)cc1-2)C(C)C [Example 371, 3-[[acetyl(isopropyl)amino]methyl]-9-fluoro-10-(3-hydroxy-3-methyl-but-1-ynyl)-5,6,7,12-tetrahydro-5,7-methano-benzo[c]imidazo[1,2-a]azepine-2-carboxamide] | – | > 20000 | 1900 |
| CC(C)(O)C#Cc1ccc2c(c1)-c1nc(C(N)=O)c(-c3nnc(C4CC4)s3)n1C1CC2C1 [Example 390, 9-fluoro-10-(3-hydroxy-3-methyl-but-1-ynyl)-3-(trifluoromethyl)-5,6,7,12-tetrahydro-5,7-methanobenzo[c]imidazo[1,2-a]azepine-2-carboxamide] | – | 9500 | 1500 |
| CN1CC[C@@](O)(C#Cc2ccc3c(c2)-c2nc(C(N)=O)sc2C(F)(F)CO3)C1=O [Example 406, 10-[(3R)-3-hydroxy-3-(5-methylisoxazol-3-yl)but-1-ynyl]-N3,N3-dimethyl-5,6,7,12-tetrahydro-5,7-methanobenzo[c]imidazo[1,2-a]azepine-2,3-dicarboxamide] | – | > 20000 | 76.1 |
| CC(C)(O)C#Cc1cc2c(cc1F)C1CC(C1)c1c-2nc(C(N)=O)n1C(F)F [Example 411, 9-fluoro-10-(3-hydroxy-3-methyl-but-1-ynyl)-3-(pyrrolidin-1-ylmethyl)-5,6,7,12-tetrahydro-5,7-methanobenzo[c]imidazo[1,2-a]azepine-2-carboxamide] | – | 20000 | 73.2 |
| Cc1nc2ccccc2n1Cc1c(C(N)=O)nc2n1CCOc1ccc(C#C[C@]3(O)CCN(C)C3=O)cc1-2 [Example 416, 9-fluoro-10-[(3R)-3-hydroxy-3-(5-methylisoxazol-3-yl)but-1-ynyl]-3-[1-(2-hydroxy-2-methyl-propyl)pyrazol-4-yl]-5,6,7,12-tetrahydro-5,7-methanobenzo[c]imidazo[1,2-a]azepine-2-carboxamide] | – | > 20000 | 3200 |
| CN1CC[C@@](O)(C#Cc2ccc3c(c2)-c2nc(C(N)=O)c(C(=O)NC4CCOCC4)n2CCO3)C1=O [Example 422, 9-fluoro-10-(3-hydroxy-3-methyl-but-1-ynyl)-3-(1-hydroxy-1-methyl-ethyl)-5,6,7,12-tetrahydro-5,7-methanobenzo[c]imidazo[1,2-a]azepine-2-carboxamide] | – | > 20000 | 406 |
| Cc1cc([C@](C)(O)C#Cc2ccc3c(c2)-c2nc(C(N)=O)c(CN4CCCC4)n2C2CC3C2)no1 [Example 424, 10-(3-hydroxy-3-methyl-but-1-ynyl)-N3-methyl-5,6,7,12-tetrahydro-5,7-methanobenzo[c]imidazo[1,2-a]azepine-2,3-dicarboxamide] | – | > 20000 | 3200 |
| Cn1c(C(N)=O)nc2c1C1CC(C1)c1ccc(C#C[C@@](C)(O)c3ncccn3)cc1-2 [Example 427, 9-fluoro-10-(3-hydroxy-3-methyl-but-1-ynyl)-N3-methyl-5,6,7,12-tetrahydro-5,7-methanobenzo[c]imidazo[1,2-a]azepine-2,3-dicarboxamide] | – | > 20000 | 453 |
| CN1CC[C@@](O)(C#Cc2ccc3c(c2)-n2nc(C(N)=O)cc2C2(CC2)CO3)C1=O [Example 460] | – | > 20000 | 252 |

Second part, led by results:

| Ki [1] [µM] | IC50 [2] [nM] | SMILES | IC50 [3] [nM] |
| --- | --- | --- | --- |
| 0.001 | 20000 | Cc1nc([C@](C)(O)C#Cc2cc3c(cc2F)OCCc2sc(C(N)=O)nc2-3)no1 | 171 |
| 0.0021 | 17500 | CNC(=O)c1c(C(N)=O)nc2n1C1CC(C1)c1ccc(C#C[C@@](C)(O)c3noc(C)n3)cc1-2 | 3800 |
| 0.0013 | > 20000 | CC(C)(O)C#Cc1cc2c(cc1F)C1CC(C1)n1c-2nc(C(N)=O)c1-c1nc(C2CC2)n[nH]1 | 3600 |
| 0.0002 | > 20000 | Cc1cc([C@](C)(O)C#Cc2cc3c(cc2F)C2CC(C2)c2[nH]c(C(N)=O)nc2-3)no1 | 477 |
| 0.0007 | > 20000 | Cc1nc([C@](C)(O)C#Cc2cc3c(cc2F)C2CC(C2)n2c-3nc(C(N)=O)c2C)no1 | 1100 |
| 0.0013 | > 20000 | Cc1cc([C@](C)(O)C#Cc2cc3c(cc2F)C2CC(C2)n2c-3nc(C(N)=O)c2C)no1 | 385 |
| 0.0047 | > 20000 | C[C@@](O)(C#Cc1cc2c(cc1F)OCCn1c-2nc(C(N)=O)c1-c1nc(C2CC2)n[nH]1)c1ncccn1 | 1600 |
| 0.0072 | > 20000 | C[C@@](O)(C#Cc1ccc2c(c1)-c1nc(C(N)=O)c(-c3nc(C4CC4)n[nH]3)n1CCO2)c1ncccn1 | 2100 |
| 0.0005 | > 20000 | Cc1nc([C@](C)(O)C#Cc2cc3c(cc2F)C2CC(C2)c2c-3nc(C(N)=O)n2C)no1 | 835 |
| 0.0024 | > 20000 | Cc1cc([C@](C)(O)C#Cc2cc3c(cc2F)C2CC(C2)n2cc(C(N)=O)nc2-3)on1 | 675 |
| 0.0087 | > 20000 | Cc1cc(-c2c(C(N)=O)nc3n2CCOc2cc(F)c(C#C[C@@](C)(O)c4noc(C)n4)cc2-3)[nH]n1 | 2500 |
| – | > 20000 | Cc1cc([C@](C)(O)C#Cc2ccc3c(c2)-c2nc(C(N)=O)c(Cn4c(C)nc5ccccc54)n2CCO3)no1 [Example 415, 9-fluoro-10-(3-hydroxy-3-methyl-but-1-ynyl)-3-[(2-methoxyethylamino)methyl]-5,6,7,12-tetrahydro-5,7-methanobenzo[c]imidazo[1,2-a]azepine-2-carboxamide] | 979 |
| – | > 20000 | CN1CC[C@@](O)(C#Cc2cc3c(cc2F)OCCn2c-3nc(C(N)=O)c2C2CC2)C1=O [Example 418, 9-fluoro-10-(3-hydroxy-3-methyl-but-1-ynyl)-3-[[2-methoxyethyl(methyl)amino]methyl]-5,6,7,12-tetrahydro-5,7-methanobenzo[c]imidazo[1,2-a]azepine-2-carboxamide] | 515 |
| – | > 20000 | Cc1nc([C@](C)(O)C#Cc2ccc3c(c2)-c2nc(C(N)=O)sc2C2CC3C2)no1 [Example 450, (R)-9-(3-hydroxy-3-(5-methyl-1,2,4-oxa-diazol-3-yl)but-1-yn-1-yl)-5,6-dihydro-4H-4,6-methanobenzo[6,7]cyclo-hepta[1,2-d]thiazole-2-carboxamide] | 459 |

Source: patent US9034866B2 (Genentech, Inc., priority 2012, dated 2015)
